According to patent US20030158213A1, “Xanthine oxidase inhibition as a strategy to alleviate oxidative impairment of vascular function” (priority 2001, published 2003):
Entries after “also recorded” stand apart in the source; their conditions may differ. Where two headings read alike, the source gives them in different places.

Legend:
aorta of SCD mice = test: Vessel O2.- production by coelenterazine-enhanced chemiluminescence; assay type: cell-based, mouse; details: for rates of O2.— production enhanced by xanthine: SCD mouse vessels pretreated, CuZn SOD 30 U/ml, allopurinol 100 μM, BOF-4272 25 μM
From the text: Values represent mean±SD (n=4). Statistical analysis was by two-way ANOVA with the Duncan's post hoc test. *, p<0.05 compared to control. +, p<0.05 compared to xanthine-treated sickle cell vessels. **, […] compared to control and all treated vessel groups.

HbA and HbS red cells [1] = test: Red cell O2.- release by cytochrome c reduction; assay type: cell-based, human
Method: If red blood cells from sickle cell patients produce increased amounts of O2. and H2O2 as compared to red blood cells from healthy donors, then local depletion of .NO might be explained on this basis. […] The mean Hb content of HbA and HbS red cell preparations was similar. DMNQ (100 μM) was added to stimulate red cell O2.— production.
Blood was collected from healthy HbA adult volunteers and homozygous HbS patients in anticoagulated (EDTA) vacu-containers. All individuals were evaluated for cytochrome b5 reductatse and glucose-6-phosphate dehydorgenase activity and none were reported deficient. […] Packed RBCs were diluted to a hematocrit of 2.5% (vol/vol) hemoglobin concentrations as determined with Drabkin's reagent at 540 nm, and rates of O2. release over 2 hours were quanitifed spectrophotometrically by CuZn SOD-inhibitable (100 units/ml, equivalent to approximately 33 ug/ml SOD) reduction of cytochrome c (50 uM) at 550 nm(εM=21 mM^−1cm^−1). In some experiments, O2. release was measured in cells pretreated with DMNQ (Oxis, 100 uM), 3-hydroxy-1,2-dimethyl-4-pyridone (HDP, Aldrich, 0.5 mM), and 4,4-diisothiocyano-2,2 disulfonic acid stilbene (DIDS, Sigma, 200 uM). Possible Hb intereference in determination of rates of cytochrome c reduction was evaluated by performing a singular value decomposition analysis (Matlab, Mathworks, Natick, Mass.).

eNOS = test: NOS activity in lysates of BAEC after oxidant stress; assay type: cell-based, bovine; details: 2 hr, mean ± SEM, n = 3
From the text: Also, XO can serve as a source of H2O2 that in turn will support the oxidative reactions of myeloperoxidase (NO consumption and the generation of chlorinating, nitrating and oxidizing species). Another potential mechanism explaining XO inhibition of endothelial-dependent relaxation and cGMP formation may be oxidant-induced changes in the expression and/or activity of eNOS, especially during more chronic exposure to reactive oxygen species. Bovine aortic endothelial cells (BAEC) were exposed to the redox-cycling quinone 2,3-dimethoxynapthoquinone (DMNQ), which generates controllable and low rates of O2.— and H2O2. Following treatment with DMNQ for 2 hr, the capacity of endothelial cell lysates to oxidize arginine to citrulline was used to indicate eNOS activity. Additional cells were incubated with 10 mU/ml XO for 1 hr, extensively washed and 100 μM xanthine was added during a 1 hr post-incubation period.

HbA and HbS red cells [2] = test: Red cell nitric oxide consumption; assay type: cell-based, human; details: extracellular CuZn SOD 100 U ml^−1; DMNQ 100 μM
From the text: Values represent mean±SEM (n=4 to 14). Statistical analysis was by two-way ANOVA with Tukey post hoc test. *, p<0.05 compared with basal;
Accepting that *NO reacts at almost diffusion-limited rates with O2.— (25), the relative rates of red cell .NO consumption was utilized to probe for differences in both intra-and extracellular O2.— (and possibly LOO—) production by HbA and HbS red cells. […] The presence of endogenous lipid hydroperoxides was undetectable in both HbA and HbS RBC membranes.

xanthine oxidase = target: T1, xanthine oxidase (Homo sapiens, UniProt P47989); details: intravascular concentration of 10 μg/ml; cited from earlier work
T1 construct: host or cells: forearm blood vessels, in vivo infusion of oxypurinol
T1 sequence (P47989 whole entry, the tested form may be a part): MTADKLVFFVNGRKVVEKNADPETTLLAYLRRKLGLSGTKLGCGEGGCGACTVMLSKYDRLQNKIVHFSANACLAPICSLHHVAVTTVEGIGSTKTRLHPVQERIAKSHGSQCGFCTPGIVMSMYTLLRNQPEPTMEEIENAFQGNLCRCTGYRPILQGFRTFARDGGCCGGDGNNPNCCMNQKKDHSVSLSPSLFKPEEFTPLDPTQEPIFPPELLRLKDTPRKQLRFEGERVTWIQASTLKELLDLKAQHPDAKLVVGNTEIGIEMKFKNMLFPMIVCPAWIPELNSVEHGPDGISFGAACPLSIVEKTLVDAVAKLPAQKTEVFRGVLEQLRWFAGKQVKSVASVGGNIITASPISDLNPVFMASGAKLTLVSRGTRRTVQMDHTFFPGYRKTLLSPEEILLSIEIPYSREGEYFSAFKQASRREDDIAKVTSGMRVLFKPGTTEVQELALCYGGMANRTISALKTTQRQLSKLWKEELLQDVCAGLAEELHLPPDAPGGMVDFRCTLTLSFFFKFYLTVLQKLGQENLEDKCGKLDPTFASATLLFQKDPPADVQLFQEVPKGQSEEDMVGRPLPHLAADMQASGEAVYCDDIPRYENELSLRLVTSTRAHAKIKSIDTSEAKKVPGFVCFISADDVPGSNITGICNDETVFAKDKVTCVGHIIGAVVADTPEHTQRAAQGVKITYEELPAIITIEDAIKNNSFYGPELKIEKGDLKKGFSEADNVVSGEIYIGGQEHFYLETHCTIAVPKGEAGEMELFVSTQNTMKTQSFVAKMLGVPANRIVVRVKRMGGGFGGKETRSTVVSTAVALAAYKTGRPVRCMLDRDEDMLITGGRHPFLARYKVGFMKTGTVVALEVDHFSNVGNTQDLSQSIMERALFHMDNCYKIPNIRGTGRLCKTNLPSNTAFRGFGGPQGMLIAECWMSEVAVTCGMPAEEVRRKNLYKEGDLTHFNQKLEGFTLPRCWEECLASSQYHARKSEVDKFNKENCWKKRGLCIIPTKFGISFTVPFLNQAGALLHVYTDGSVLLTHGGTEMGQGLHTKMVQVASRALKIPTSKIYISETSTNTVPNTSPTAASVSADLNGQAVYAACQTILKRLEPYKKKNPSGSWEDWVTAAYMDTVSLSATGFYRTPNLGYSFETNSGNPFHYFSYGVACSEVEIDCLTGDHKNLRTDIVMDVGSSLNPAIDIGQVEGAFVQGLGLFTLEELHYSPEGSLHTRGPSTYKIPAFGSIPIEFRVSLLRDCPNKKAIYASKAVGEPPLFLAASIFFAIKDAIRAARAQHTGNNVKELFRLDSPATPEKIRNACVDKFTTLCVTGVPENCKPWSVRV

[3] = compared to allopurinol; cited from earlier work
aortic rings [4] = test: Acetylcholine relaxation of aortic rings pre-incubated with XO; assay type: cell-based; details: rings incubated with XO 10 mU/ml 1 hr, washed; xanthine in buffer; heparin 10-1000 U/ml, allopurinol 10-250 μM
Method: (§1) Increased cell-associated XO can impair endothelial-dependent vascular signaling. When isolated aortic ring segments are incubated with XO for 1 hr and then extensively washed to remove unbound XO, endothelial-dependent relaxations in response to acetylcholine are diminished when the XO substrate xanthine is present in the buffer (FIG. 2A). Inhibition of endothelial-dependent relaxation is abrogated by post-washing treatment of the aortic rings with the XO inhibitor allopurinol, as well as heparin, which inhibits and/or competes for XO binding to endothelial cell GAGs. This ex vivo model of vascular dysfunction reinforces observations made in a model of atherosclerosis. […] Importantly, there appears to be sufficient substrate in the vasculature for XO to catalyze elevated oxidant production, without the need for exogenously added purine.

aortic rings [5] = test: Acetylcholine relaxation of aortic rings from cholesterol-fed rabbits; assay type: cell-based, rabbit; details: rings from rabbits on 1% cholesterol diet (6 weeks); heparin 1000 U/ml, allopurinol 100 μM
Method: as §1

guanylate cyclase = test: Ionomycin-induced .NO-dependent cGMP formation, XO-exposed endothelial cells with smooth muscle cells; assay type: cell-based, bovine; details: BAEC exposed to XO 10 mU/ml 3 hr, washed; xanthine 100 μM, ionomycin 6.7 μM, 15 min; cGMP by ELISA
Method: Endothelial cells were cultured on Transwell filters and exposed to XO (10 mU/ml) for 3 hr and washed extensively. Filters were then transferred to dishes containing smooth muscle cells and incubated with xanthine (100 μM) and ionomycin (6.7 μM)±allopurinol for 15 min. cGMP was then determined by ELISA. (n=3);
Bovine aortic endothelial cell (BAEC) monolayers having bound and potentially internalized XO manifested an impaired ability to support ionomycin-induced, .NO-dependent cGMP formation by adjacent smooth muscle cells.

[6] = test system: vessel rings prepared from sickle cell mice; test: Relaxation of vessel rings from sickle cell mice to NO-dependent stimuli; assay type: cell-based, mouse; details: MnTE-2-PyP 50 μM, allopurinol 50 μM
[7] = test system: myocardial ischemia-reperfusion injury; details: rabbit; cited from earlier work
[8] = test system: myocardial ischemia-reperfusion injury; details: clinical; cited from earlier work
[9] = at pharmacologic concentrations; cited from earlier work
[10] = test system: cultured endothelial cells; details: heparin on bound XO; enzymes as pretreatment of cells; cited from earlier work

COc1cc(-c2cnn3c(=O)nc[n-]c23)ccc1[S+]([O-])c1ccccc1.[Na+] (stereo not shown) [BOF-4272]
rates of O2.— production enhanced by xanthine (aorta of SCD mice): returned to basal rates

O=S(=O)(O)c1cc(N=C=S)ccc1C=Cc1ccc(N=C=S)cc1S(=O)(=O)O [DDS, 4,4-diisothiocyano-2,2 disulfonic acid stilbene]
decrease in rates of cytochrome c reduction (HbA and HbS red cells [1]; pretreated with 200 μM, both HbA and HbS red cells): ~35%

COC1=C(OC)C(=O)c2ccccc2C1=O [DMNQ, 2,3-dimethoxynapthoquinone]
NOS activity (eNOS; DMNQ 5 μM): 0.75 ± 0.09 pmol/min/mg prot | NOS activity (eNOS; DMNQ 50 μM): 0.49 ± 0.60 pmol/min/mg prot | rate of .NO consumption (HbA and HbS red cells [2]): significantly increased rates of red cell .NO consumption | rates of O2. production (aorta of SCD mice; DMNQ 100 μM, positive control, both control and SCD mouse vessels): significantly enhanced rates of O2. production

Cc1c(O)c(=O)ccn1C [HDP, 3-hydroxy-1,2-dimethyl-4-pyridone]
decrease in O2.— (HbA and HbS red cells [1]; preincubation with HDP 0.5 mM, 150 mm Hg O2, pH 7.4): ~36%

O=c1[nH]c(=O)c2c[nH]nc2[nH]1 [Oxypurinol]
inhibition of xanthine oxidase activity in the forearm blood vessels (xanthine oxidase): greater than 90% | water solubility [3]: increased water solubility as compared to allopurinol

Oc1ncnc2[nH]ncc12 [allopurinol]
reversal of XO-induced reduction of vasodilation in response to acetylcholine (aortic rings [4]): reversible; also recorded: abrogated | restoration of endothelial-dependent relaxation (aortic rings [5]): partially restored endothelial-dependent relaxation; also recorded: significantly reversed | reversal of XO inhibition of .NO-mediated cGMP formation (guanylate cyclase): reversible | rates of O2.— production enhanced by xanthine (aorta of SCD mice): returned to basal rates | vessel relaxation in response to NO-dependent stimuli [6]: reversal of impaired vessel relaxation | myocardial ischemia-reperfusion injury [7]: attenuated | myocardial ischemia-reperfusion injury [8]: attenuated | direct antioxidant properties [9]: no direct antioxidant properties

CuZn SOD: CuZn superoxide dismutase, O2.- scavenging enzyme
rate of .NO consumption (HbA and HbS red cells [2]): did not impact on the rate of .NO consumption | rates of O2.— production enhanced by xanthine (aorta of SCD mice): returned to basal rates

heparin
reversal of XO-induced reduction of vasodilation in response to acetylcholine (aortic rings [4]): reversible; also recorded: abrogated | restoration of endothelial-dependent relaxation (aortic rings [5]): partially restored endothelial-dependent relaxation; also recorded: significantly reversed | effect on XO binding to endothelium [10]: partially displaced
